A short description of data set [1]: Metabolic stability: in vitro incubation with liver microsomes. It counts as in vitro ADME. Conditions: Mouse liver microsomes; for CL: calculated from half-life in the incubation mixture; for Fmax: maximum bioavailability calculated from half-life in the incubation mixture. Here is the method: In Vitro Incubation with Liver Microsomes:
The hepatic microsomal stability is determined by incubating the substances according to the invention with liver microsomes from various species. The incubation concentration of the substances is kept as low as possible (preferably <1 μM), as is the concentration of the microsomal proteins in the test mixture (preferably 0.2 mg of microsomal protein per ml of incubation mixture). This procedure makes it possible to operate in the linear region of the Michaelis-Menten kinetics for most compounds. A sample is taken from the incubation mixture at various times (seven times in total) to determine the remaining substance concentration. The clearance (CL) and the maximum bioavailability (Fmax) of the test substance is calculated for the respective species from the half-life of the substance in the incubation mixture.
The experiments are carried out as described in detail in J. B. Houston and D. J. Carlile [Drug Metab. Rev. 29, 891-922 (1997)].

The next data set relates to H460 cells. The data set can be described thus: In vitro proliferation of tumor cells (CellTiter-Glo). It counts as cell-based. Conditions: NCI-H460; H460 human lung carcinoma cells, 24 h after addition of substance. The text has this: Various types of cancer are characterized by uncontrolled, excessive proliferation of various cell types, leading to the development of metastases and tumors. The possible use of the substances according to the invention for the treatment of hyperproliferative disorders can be investigated by their activity on the cell division rate of tumor cells in vitro. The indicator between antiproliferative effect in vitro and clinical antitumor effect is well established. The therapeutic utilizability of, for example, Taxol [Silvestrini et al., Stem Cells 11, 528-535 (1993)], Taxotere [Bissery et al., Anti Cancer Drugs 6, 339 (1995)] or topoisomerase inhibitors [Edelman et al., Cancer Chemother.
The tumor cell lines such as, for example, MDA-MB-231 cells (human breast adenocarcinoma cells), H460 cells (human lung carcinoma cells) or HCT-15 cells (human colon adenocarcinoma cells) are expanded in appropriate growth media (Sigma, Taufkirchen, Germany) recommended by the supplier (e.g. LGC Promochem, Wesel, Germany). One day before adding the compounds according to the invention, the cells are distributed in a density of 3000 cells/well in 100 μl of growth medium on black 96-well microtiter plates with clear base. On the day of addition of test substance, one microtiter plate for each tumor cell line is used to determine the initial cell count present in the wells. The substances according to the invention, diluted in growth medium and DMSO, are added to the related plates. The test substances are usually added in various concentrations starting with 10 μM final concentration in the assay. The DMSO concentration in the assay is 0.1%. Twenty-four hours after addition of the substance, the cell counts in each well are determined using the CellTiter-Glo® Luminescent Cell Viability-Tests (Promega GmbH, Mannheim, Germany). The test is carried out in accordance with the manufacturer's instructions and evaluated using a luminometer. To ascertain the antiproliferative activity of the compounds according to the invention, the cell counts determined before addition of substance in related plates are subtracted, and the percentage difference of the changes in the cell counts between substance-treated and vehicle-treated cells is determined. The relative activity of the different test substances is determined by a comparison of the concentrations which bring about 50% of their maximum effect (IC50).
(In general: Cellular ATP, detected with luciferase, serves as a proxy for viable cell number.)

Data set [2] has as its system Interleukin-8 (IL-8) release from human endothelial cells. The data set can be described thus: Inhibition of interleukin-8 (IL-8) release from human endothelial cells (HUVEC), IL-1β induced, ELISA. The data set is classed as cell-based. Conditions: IL-1β 10 ng/ml, 6 h, IL-8 by ELISA, read-out: IC50 (50% inhibition of IL-8 release relative to the maximum effect). From the text:
1.a) Inhibition of Interleukin-8 (IL-8) Release from Human Endothelial Cells
The expression of the human IL-8 gene is controlled by a diversity of regulatory and enhancer elements which are located above the promoter region of the gene. These elements comprise binding sites for transcription factors, and efficient transcription of the IL-8 gene is possible only through the interaction thereof with their DNA binding sites. The activity of the corresponding transcription factors can be induced by various stimuli (e.g. interleukin-1β, tumor necrosis factor-α) and can be modulated by various signal transduction pathways [H. Holtmann et al., Mol. Cell. Biol. 19, 6742-6753 (1999)].
For maximum expression of IL-8, the activity of two different transcription factors is essential: NF-κB and AP-1 [Y.-H. Chang et al., Exp. Cell Res. 278, 166-174 (2000)]. Cytokine-induced IL-8 synthesis can therefore be employed as test system for identifying and characterizing test substances which inhibit directly or indirectly the binding of NF-κB and AP-1 to their DNA binding sites.
Human umbilical cord endothelial cells (HUVEC) were purchased from CellSystems (St. Katharinen, Germany) and cultured in accordance with the supplier's recommendation in EGM-2 medium including growth additions (CellSystems, St. Katharinen, Germany) in 165 cm^2 tissue culture bottles. After the cell lawn has reached 60-80% confluence, the cells are detached from the base of the bottle by trypsin treatment, mechanically dissociated and seeded in a cell density of 5000 cells/well in 96-well microtiter plates (Corning, Wiesbaden, Germany). After 3 days, the culture medium is completely replaced by 170 μl of fresh medium per well. The cells are employed for the experiments on the following day.
To determine the inhibitory effect of the substances according to the invention on IL-8 release, they are firstly dissolved in a concentration ten times higher than the desired final concentration in the test in medium which comprises 1% DMSO. Subsequently, 20 μl of the substance solution are added per well. The formation and release of IL-8 is then induced by adding interleukin-1β (IL-1β, final concentration 10 ng/ml; Biosource GmbH, Solingen, Germany), and the cells are incubated in a CO2 incubator at 37° C. for 6 h. Thereafter, 150 μl of the cell supernatant are removed and frozen at −20° C. until the IL-8 content is measured by ELISA (Biosource GmbH, Solingen, Germany). To carry out the ELISA, the samples are thawed and are diluted 1:10, and the test is carried out in accordance with the manufacturer's instructions. The inhibitory effect of the compounds according to the invention on IL-8 release is ascertained by comparison with vehicle-treated cells.
Background: ELISA stands for enzyme-linked immunosorbent assay.

On to `O[C@H]1C[C@@H](c2ccccc2)[C@]2(c3ccc(Cl)cc3)Oc3cccc(OCCN4CCCC4)c3[C@]12O` (racemic) [Example 48, (1S*,3S*,3aR*,8bS*)-3a-(4-Chlorophenyl)-3-phenyl-8-(2-pyrrolidin-1-ylethoxy)-2,3,3a,8b-tetrahydrocyclopenta[b]benzofuran-1,8b-(1H)-diol], for which, in data set [1], the CL is less than 45 mL/min/kg and the Fmax is on record as greater than 50%. For the same molecule, the IC50 (in general, the concentration needed to halve the response being measured) with H460 cells amounted to 47.9 nM. Further, the IC50 in data set [2] came to 214 nM.

With `CCOc1ccc2c(c1)O[C@@]1(c3ccc(Cl)cc3)[C@H](c3ccccc3)C[C@H](O)[C@@]21O` (relative stereo) [Example 23, (1S*,3S*,3aR*,8bS*)-3a-(4-Chlorophenyl)-6-ethoxy-3-phenyl-2,3,3a,8b-tetrahydrocyclopenta[b]-benzofuran-1,8b-(1H)-diol], the IC50 is 99.7 nM with H460 cells and 202 nM in data set [2].

For `COCCOc1cc(OCCOC)c2c(c1)O[C@@]1(c3ccc(Br)cc3)[C@H](c3ccccc3)C[C@@H](O)[C@@]21O` (relative stereo) [Example 18, (1R*,3S*,3aR*,8bS*)-6,8-Bis(2-methoxyethoxy)-3a-(4-bromophenyl)-3-phenyl-2,3,3a,8b-tetrahydrocyclopenta[b]benzofuran-1,8b-(1H)-diol], in data set [1], the CL was less than 45 mL/min/kg and the Fmax is greater than 50%. Also, the IC50 in data set [2] came out at 20 nM.

As to `CCOc1cc(OCC)c2c(c1)O[C@@]1(c3ccc(-c4ccsc4)cc3)[C@H](c3ccccc3)C[C@@H](O)[C@@]21O` (relative stereo) [Example 3, (1R*,3S*,3aR*,8bS*)-6,8-Diethoxy-3-phenyl-2,3,3a,8b-tetrahydro-3a-(4-thiophen-3-ylphenyl)-cyclopenta[b]benzofuran-1,8b-(1H)-diol], in data set [1], the CL is less than 45 mL/min/kg and the Fmax is on record as greater than 50%. Also, the IC50 in data set [2] stood at 170 nM.

On to `CCOc1cc(OCC)c2c(c1)O[C@@]1(c3ccc(Cl)cc3)[C@H](c3ccccc3)C[C@@H](N)[C@@]21O` (racemic) [Example 15, (1R*,3S*,3aR*,8bS*)-1-Amino-3a-(4-chlorophenyl)-6,8-diethoxy-8b-hydroxy-3-phenyl-2,3,3a,8b-tetrahydrocyclopenta[b]benzofuran], for which, in data set [1], the CL is less than 45 mL/min/kg and the Fmax is greater than 50%. In addition, the IC50 in data set [2] was found to be 166 nM.

As to `CN(C)CCOc1cc(OCCN(C)C)c2c(c1)O[C@@]1(c3ccc(Cl)cc3)[C@H](c3ccccc3)C[C@@H](O)[C@@]21O` (relative stereo) [Example 21, (1R*,3S*,3aR*,8bS*)-6,8-Bis(2-dimethylaminoethoxy)-3a-(4-chlorophenyl)-3-phenyl-2,3,3a,8b-tetrahydrocyclopenta[b]benzofuran-1,8b-(1H)-diol], it took 1.5 nM to reach half-maximal inhibition with H460 cells (IC50).

Take `CCOc1cc(OCC)c2c(c1)O[C@@]1(c3ccc(Br)cc3)[C@H](c3ccccc3)[C@@H](C(=O)N(C)C)C(=O)[C@@]21O` (relative stereo) [Example 12, (2R*,3S*,3aR*,8bR*)-3a-(4-Bromophenyl)-6,8-diethoxy-2-dimethylcarbamid-8b-hydroxy-3-phenyl-2,3,3a,8b-tetrahydrocyclopenta[b]benzofuran-1-one]: in data set [1], the CL is 49.5 mL/min/kg and the Fmax was 45.1%. Besides, the IC50 in data set [2] is 466 nM.

For the molecule `CN(C)CCOc1cc(OCCN(C)C)c2c(c1)O[C@@]1(c3ccc(Br)cc3)[C@H](c3ccccc3)C[C@H](O)[C@@]21O` (relative stereo) [Example 22, (1S*,3S*,3aR*,8bS*)-6,8-Bis(2-dimethylaminoethoxy)-3a-(4-bromophenyl)-3-phenyl-2,3,3a,8b-tetrahydrocyclopenta[b]benzofuran-1,8b-(1H)-diol], in data set [1], the CL was less than 45 mL/min/kg and the Fmax is greater than 50%. Further, the IC50 in data set [2] is 90 nM.

In the data set with H460 cells, `CN(C)CCOc1cccc2c1[C@]1(O)[C@@H](O)C[C@@H](c3ccccc3)[C@]1(c1ccc(Cl)cc1)O2` (relative stereo) [Example 49, (1S*,3S*,3aR*,8bS*)-3a-(4-Chlorophenyl)-8-(2-dimethylaminoethoxy)-3-phenyl-2,3,3a,8b-tetrahydrocyclopenta[b]benzofuran-1,8b-(1H)-diol] had an IC50 of 29.7 nM.

For `CN(C)CCOc1ccc2c(c1)O[C@@]1(c3ccc(Cl)cc3)[C@H](c3ccccc3)C[C@H](O)[C@@]21O` (racemic) [Example 32, (1S*,3S*,3aR*,8bS*)-3a-(4-Chlorophenyl)-6-(2-dimethylaminoethoxy)-3-phenyl-2,3,3a,8b-tetrahydrocyclopenta[b]benzofuran-1,8b-(1H)-diol], in data set [1], the CL was less than 45 mL/min/kg and the Fmax was greater than 50%. Moreover, in the data set on H460 cells, the IC50 came to 0.5 nM. In data set [2], the IC50 was determined as 112 nM.

Source of the values: US8030347B2, “Cylopenta[b]benzofuran derivatives and the utilization thereof” (Bayer HealthCare AG, priority 2004, dated 2011).
